Laboratory results taken from patent US20260137698A1, “CYCLIN-DEPENDENT KINASE 7 INHIBITORS” (JOINT STOCK COMPANY «BIOCAD», priority 2022, published 2026).
pIC50: −log10 of the molar value. Read-outs that look alike come from different tables or passages of the source.

Legend:
CDK2/Cyclin A = CDK2/Cyclin A (Homo sapiens, UniProt P24941); assay: Inhibition of CDK2/Cyclin A kinase activity (ADP-Glo); assay type: biochemical
Method in brief: (§1)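 ADP-Glo luminescence quantified ATP consumption after a 40-60 minute, 25° C. reaction with ATP plus CDKtide, Histone H1 or PDKtide, following a 10-minute compound–kinase preincubation in DTT-supplemented kinase buffer A. Compounds spanned 11 concentrations from 50 μM in 4-fold dilutions; IC50 fitted to a four-parameter model.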

CDK7/Cyclin H/MNAT1 = CDK7/Cyclin H/MNAT1 (Homo sapiens, UniProt P50613); assay: Inhibition of CDK7/Cyclin H/MNAT1 kinase activity (ADP-Glo); assay type: biochemical
Sequence of CDK7/Cyclin H/MNAT1 (P50613 whole entry): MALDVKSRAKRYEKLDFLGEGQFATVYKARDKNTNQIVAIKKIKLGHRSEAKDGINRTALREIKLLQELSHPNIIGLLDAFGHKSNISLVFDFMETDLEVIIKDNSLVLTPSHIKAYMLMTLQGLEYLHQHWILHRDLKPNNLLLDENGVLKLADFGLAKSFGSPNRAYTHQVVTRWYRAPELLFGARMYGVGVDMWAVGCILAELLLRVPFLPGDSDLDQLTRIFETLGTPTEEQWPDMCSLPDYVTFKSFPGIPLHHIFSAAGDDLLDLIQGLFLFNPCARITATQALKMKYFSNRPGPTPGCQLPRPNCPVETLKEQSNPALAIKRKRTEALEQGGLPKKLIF
Sequence of CDK7/Cyclin H/MNAT1 (P51946 whole entry partner): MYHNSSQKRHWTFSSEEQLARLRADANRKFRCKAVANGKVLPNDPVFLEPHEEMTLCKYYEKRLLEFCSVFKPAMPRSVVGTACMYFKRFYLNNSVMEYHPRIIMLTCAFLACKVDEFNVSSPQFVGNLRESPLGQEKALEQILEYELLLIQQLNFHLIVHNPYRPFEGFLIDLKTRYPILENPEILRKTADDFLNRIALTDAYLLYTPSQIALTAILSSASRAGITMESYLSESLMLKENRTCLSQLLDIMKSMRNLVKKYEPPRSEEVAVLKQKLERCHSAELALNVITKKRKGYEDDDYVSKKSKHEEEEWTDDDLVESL
Sequence of CDK7/Cyclin H/MNAT1 (P51948 whole entry partner): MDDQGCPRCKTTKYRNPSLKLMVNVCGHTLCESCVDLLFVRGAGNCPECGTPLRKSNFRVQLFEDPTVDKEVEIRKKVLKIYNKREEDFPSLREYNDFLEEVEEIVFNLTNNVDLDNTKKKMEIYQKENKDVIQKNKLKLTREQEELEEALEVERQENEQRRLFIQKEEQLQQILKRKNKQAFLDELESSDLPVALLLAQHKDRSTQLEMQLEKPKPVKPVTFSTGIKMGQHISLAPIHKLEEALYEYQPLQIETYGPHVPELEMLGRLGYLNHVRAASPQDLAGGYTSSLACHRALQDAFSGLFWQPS
Method in brief: as §1

CDK9/Cyclin K = CDK9/Cyclin K (Homo sapiens, UniProt P50750); assay: Inhibition of CDK9/Cyclin K kinase activity (ADP-Glo); assay type: biochemical
Sequence of CDK9/Cyclin K (P50750 whole entry): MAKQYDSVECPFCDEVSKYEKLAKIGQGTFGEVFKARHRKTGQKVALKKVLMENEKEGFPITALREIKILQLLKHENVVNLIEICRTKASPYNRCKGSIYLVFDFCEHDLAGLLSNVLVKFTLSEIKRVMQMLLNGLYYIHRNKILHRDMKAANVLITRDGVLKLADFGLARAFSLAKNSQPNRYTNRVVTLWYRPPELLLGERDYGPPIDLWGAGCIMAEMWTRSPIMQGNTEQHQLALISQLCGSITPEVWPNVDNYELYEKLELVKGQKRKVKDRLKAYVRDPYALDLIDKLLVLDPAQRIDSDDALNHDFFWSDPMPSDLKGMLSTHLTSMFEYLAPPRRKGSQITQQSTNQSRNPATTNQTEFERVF
Sequence of CDK9/Cyclin K (O75909 whole entry partner): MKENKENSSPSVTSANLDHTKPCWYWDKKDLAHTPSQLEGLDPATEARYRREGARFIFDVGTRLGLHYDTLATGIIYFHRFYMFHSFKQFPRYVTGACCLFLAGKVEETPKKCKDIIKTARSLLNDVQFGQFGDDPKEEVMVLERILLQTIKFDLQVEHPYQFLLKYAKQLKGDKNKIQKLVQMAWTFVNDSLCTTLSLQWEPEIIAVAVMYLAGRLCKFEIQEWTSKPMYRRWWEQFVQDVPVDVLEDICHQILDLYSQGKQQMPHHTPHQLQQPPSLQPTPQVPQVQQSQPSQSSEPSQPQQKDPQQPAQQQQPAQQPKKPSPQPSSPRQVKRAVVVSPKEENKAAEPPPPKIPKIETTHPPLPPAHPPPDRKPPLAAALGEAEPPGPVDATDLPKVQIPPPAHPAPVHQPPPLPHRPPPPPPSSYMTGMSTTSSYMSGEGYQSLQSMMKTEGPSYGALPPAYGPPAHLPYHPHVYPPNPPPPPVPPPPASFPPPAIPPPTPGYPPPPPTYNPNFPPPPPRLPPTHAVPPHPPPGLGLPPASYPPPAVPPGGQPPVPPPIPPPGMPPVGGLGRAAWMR
Method in brief: as §1

[1] = system: NCl-H82 (small cell lung cancer); assay: Antiproliferative assay on NCl-H82 cells (AlamarBlue, 120 h); assay type: cell-based; conditions: mean value from several measurements
Procedure: The antiproliferative activity of CDK7 inhibitors according to the present invention was evaluated in a cell test using continuous cell cultures: MDA-MB-468 (triple negative breast cancer, ATCC® HTB-132™) and NCl-H82 (small cell lung cancer, ATCC® HTB-175™) using a viable AlamarBlue dye (Thermo Fisher Scientific Inc, order no. DAL1100). The cells were grown in DMEM (PanEco, order no. C330π) and RPMI-1640 (PanEco, order no. C330π), respectively. The basal growth medium was enriched with L-glutamine at a concentration of 2 mM (PanEco, order no. Φ032) and 10% fetal bovine serum (Gibco, order no. 16140-071). The night before measurement, MDA-MB-468 adherent cells were detached from plastic with a solution of trypsin-EDTA (PanEco, order no. Π039π), the solution was then inactivated by a DMEM complete medium, centrifuged at 1000 RPM (Eppendorf, 5804 R), a suspension of cells was prepared in a DMEM complete medium, introduced into 96-well culture plates (Corning Inc, order no. 3599) at 8×10^3 cells in 100 μl of medium per well. The next day, test compounds were dissolved in DMSO and diluted with a DMEM complete medium to a final concentration ranging from 50 μM to 10 pM. Diluted compounds in a volume of 50 μl were introduced into the plate wells with cells in triplicates (the final concentration of DMSO was no more than 1%) and incubated at 37° C. in an incubator with 5% CO2 for 96 hours. NCl-H82 suspension cell line was prepared on the day of the analysis. 10×10^3 cells in 100 μl of an RPMI-1640 complete medium were added to each well of a 96-well plate. The procedure for sample dilution is as described above. Cells with test compounds were incubated at 37° C. in an incubator with 5% CO2 for 120 hours. Following incubation, […] of AlamarBlue reagent (Thermo Fisher Scientific Inc., order no. DAL1100) was added to the wells, the contents of the plates were stirred in an orbital shaker (Biosan, Latvia), then further incubated for 5.5-6 hours at 37° C. in an incubator with 5% CO2. The number of viable cells was detected using the Infinite M200Pro microplate spectrophotometer (Tecan Group Ltd, Switzerland) by way of measuring a fluorescent signal at an excitation wavelength (λEx) of 540 nm and an emission wavelength (λEm) of 590 nm.
IC50 value was calculated using the Magellan software (Tecan Group Ltd, Switzerland) by approximating experimental points by four-parameter model with the optimization by Levenberg-Marquardt: […]

[2] = Microsomal stability in human liver microsomes (HLM); assay type: in vitro ADME; conditions: 1 μM test compound
Procedure: The procedure for investigating the metabolism of selected compounds was carried out in microsomal fractions of the liver (of rats, mice, humans) in the presence of a phase I metabolism cofactor (NADPH).
The rate of enzymatic decomposition of the compound in liver microsomes in in vitro analysis was determined by keeping a reaction mixture comprising 0.5 mg/ml of pooled human, rat or mouse liver microsomes, 1 μM test compound, 1.5 mM […] (Carbosynth, UK, cat. no. NN108711101) and 1.5 mM magnesium chloride in 0.1 M sodium phosphate buffer (pH 7.4) in a solid-state thermostat at 37° C. (XenoTech, USA, order no. H2610, cat. no. R1000, cat. no. M1000). Incubation was carried out in three replicates.
To determine the stability of compounds under sample preparation conditions, an aliquot in two replicates with the test compound and a microsomal fraction devoid of the NADPH cofactor, which was incubated for 40 minutes at 37° C.
Reactions were stopped at 0, 10, 20, 30 and 40 min time points by way of adding an ice mixture of acetonitrile:methanol (3:1) comprising an internal standard.
Samples were then centrifuged to remove the precipitated protein, supernatants were analyzed using HPLC-MS/MS to determine in vitro clearance (CLint) of the compounds. The Agilent 6410 mass spectrometer (Agilent, USA) combined with the Agilent 1260 Infinity II HPLC liquid chromatograph (Agilent, USA) and a cooling autosampler controlled by MassHunter software (Agilent, USA) was used as an HPLC-MS/MS system. Chromatographic analysis was performed on a C18 reversed-phase HPLC column (Agilent, Waters or equivalent) in a gradient elution mode in a system of mobile phases: 0.1% formic acid in water/0.1% formic acid in acetonitrile, flow rate: 0.5 ml/min, column T=35° C. Mass spectrometric detection was performed with electrospray ionization in multiple reaction monitoring mode. Precursor ions, fragment ions and collision energies for each substance were selected experimentally.
A graph of dependence of the logarithmic ratio between substance's peak area and internal standard's peak area vs time was built. The dependent coefficient of this line corresponded to the elimination rate constant k, on the basis of which the in vitro clearance CLint was calculated:
Based on resulting in vitro clearance CLint values, the microsomal stability of the selected compounds for humans, rats and mice was concluded.

[3] = General cytotoxicity on primary differentiated HepaRG cells (72 h); assay type: cell-based; conditions: human, general toxicity, mean value from several measurements
Method in brief: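 Test compounds spanning 200 μM to 0.2 nM were incubated for 72 hours with primary differentiated HepaRG cells. Cells had been kept one week in supplemented hepatic medium and seeded the night before at 25×10^3 per well, and viability was then measured.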

[4] = system: MDA-MB-468 (triple negative breast cancer); assay: Antiproliferative assay on MDA-MB-468 cells (AlamarBlue, 96 h); assay type: cell-based; conditions: Homo sapiens, mean value from several measurements
[5] = Passive membrane permeability through PAMPA artificial membrane, pH 7.4; assay type: in vitro ADME; conditions: pH 7.4, 10 μmol, 20 hours at room temperature, mean of multiple measurements, read-out: PAMPA passive permeability Pe
Method in brief: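 Compound at 10 μmol in 0.01 M phosphate buffer pH 7.4 placed in donor wells over lecithin-phospholipid-impregnated PVDF filter, buffer in acceptor; 20 h at room temperature. Donor and acceptor levels measured by RP-HPLC-UV; Pe (cm/s) and membrane retention R (%) calculated.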

CDK13/Cyclin K = CDK13/Cyclin K (Homo sapiens, UniProt Q14004); assay: Inhibition of CDK13/Cyclin K kinase activity (ADP-Glo); assay type: biochemical
Sequence of CDK13/Cyclin K (Q14004 whole entry): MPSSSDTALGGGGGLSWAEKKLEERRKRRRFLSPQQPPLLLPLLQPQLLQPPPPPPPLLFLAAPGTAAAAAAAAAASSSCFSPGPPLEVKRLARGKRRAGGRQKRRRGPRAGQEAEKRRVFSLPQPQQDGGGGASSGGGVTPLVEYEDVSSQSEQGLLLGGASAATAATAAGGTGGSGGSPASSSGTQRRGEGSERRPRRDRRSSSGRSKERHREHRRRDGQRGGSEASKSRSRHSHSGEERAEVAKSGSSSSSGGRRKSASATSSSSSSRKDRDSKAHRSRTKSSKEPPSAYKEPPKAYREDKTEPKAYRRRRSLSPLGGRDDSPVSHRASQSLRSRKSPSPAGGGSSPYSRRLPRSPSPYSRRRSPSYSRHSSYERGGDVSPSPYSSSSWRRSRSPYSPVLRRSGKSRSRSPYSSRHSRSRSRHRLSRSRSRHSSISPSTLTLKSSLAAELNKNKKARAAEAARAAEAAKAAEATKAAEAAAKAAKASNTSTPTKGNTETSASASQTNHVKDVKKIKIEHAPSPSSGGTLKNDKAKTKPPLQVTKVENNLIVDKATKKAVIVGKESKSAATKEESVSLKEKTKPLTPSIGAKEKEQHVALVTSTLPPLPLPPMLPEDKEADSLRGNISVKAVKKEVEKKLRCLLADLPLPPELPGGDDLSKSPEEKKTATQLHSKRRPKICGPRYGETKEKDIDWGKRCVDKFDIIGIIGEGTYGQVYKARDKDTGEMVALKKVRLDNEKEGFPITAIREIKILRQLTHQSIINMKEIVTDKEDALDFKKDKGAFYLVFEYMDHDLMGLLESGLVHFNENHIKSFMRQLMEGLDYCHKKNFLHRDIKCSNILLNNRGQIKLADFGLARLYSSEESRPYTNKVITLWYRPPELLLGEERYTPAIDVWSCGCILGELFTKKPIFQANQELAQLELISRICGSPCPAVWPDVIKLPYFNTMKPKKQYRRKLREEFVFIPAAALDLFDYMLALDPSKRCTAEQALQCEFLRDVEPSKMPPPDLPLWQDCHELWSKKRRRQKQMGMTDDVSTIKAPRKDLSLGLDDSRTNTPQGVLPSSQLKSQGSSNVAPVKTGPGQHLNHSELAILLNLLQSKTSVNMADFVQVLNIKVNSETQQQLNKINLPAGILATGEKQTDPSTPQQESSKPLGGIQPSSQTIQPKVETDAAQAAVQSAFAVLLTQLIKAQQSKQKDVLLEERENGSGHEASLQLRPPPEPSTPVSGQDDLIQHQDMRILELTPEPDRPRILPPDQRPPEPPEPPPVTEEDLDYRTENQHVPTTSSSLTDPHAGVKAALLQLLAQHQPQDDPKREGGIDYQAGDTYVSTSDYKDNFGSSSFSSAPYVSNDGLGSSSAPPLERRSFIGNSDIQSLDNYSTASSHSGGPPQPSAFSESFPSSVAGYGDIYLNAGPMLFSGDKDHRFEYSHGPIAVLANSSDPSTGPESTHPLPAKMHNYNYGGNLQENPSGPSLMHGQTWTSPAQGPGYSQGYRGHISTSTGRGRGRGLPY
Sequence of CDK13/Cyclin K (O75909 whole entry partner): as the sequence (O75909 whole entry partner) above
Procedure: Measurements were carried out in a 5 μl reaction volume using a 384-well plate (Corning Inc., order no. 4513). The analyzed substances were titrated from 50 μM in increments of 4 at 11 concentration points in a normal strength kinase buffer A (Thermo Fisher Scientific Inc, cat. no. PV3189) supplemented with DTT (Sigma, orde. no. 646563-10X.5ML) and prepared with water (Panreac, order no. 701074). Kinase was diluted in an analogous buffer, mixed with test compounds in plate wells and preincubated for 10 minutes at 25° C. Following incubation, a mixture of reaction substrate (CDKtide (SignalChem, order no. C06-58) or Histone H1 (SignalChem, order no. H10-54N) or PDKtide (SignalChem, order no. P10-58) and ATP (SignalChem, order no. V915B) prepared on a normal strength kinase buffer A was added. 1% solution of dimethyl sulfoxide (DMSO) (Sigma-Aldrich, order no. D2438) in the reaction volume was used as a negative control. The final concentrations of all reaction components are shown in Table 5. The plate was centrifuged at 400 rcf (Eppendorf, 5804 R) for 1 minute and incubated for 40-60 minutes at 25° C. The amount of ATP consumed in the kinase reaction was then measured using the ADP-Glo™ detection system. Luminescence signal was measured using Spark 20M tablet multifunction reader (Tecan Group Ltd, Switzerland). IC50 value was calculated using Magellan 7.2 (Tecan Group Ltd, Switzerland) by approximating experimental points by four-parameter model with the optimization by Levenberg-Marquardt:
[formula] • where A is the upper asymptote; D is the lower asymptote; C is IC50, half-maximal inhibitory concentration of kinase, nM; B is the curvature (slope).

[6] = mean of multiple measurement series, ATP 50 μM, read-out: CDK2/Cyclin A IC50
[7] = mean value from several measurements, read-out: IC50 CDK2/Cyclin A
[8] = mean of multiple measurement series, ATP 10 μM, read-out: CDK7/Cyclin H/MNAT1 IC50
[9] = mean value from several measurements, read-out: IC50 CDK7/Cyclin H/MNAT
[10] = mean of multiple measurement series, ATP 50 μM, read-out: CDK9/Cyclin K IC50
[11] = mean value from several measurements, read-out: IC50 CDK9/Cyclin K
[12] = mean value from several measurements, read-out: IC50 CDK13/Cyclin K

SMILES	pIC50 (CDK2/Cyclin A; [6])	pIC50 (CDK2/Cyclin A; [7])	pIC50 (CDK7/Cyclin H/MNAT1; [8])	pIC50 (CDK7/Cyclin H/MNAT1; [9])	pIC50 (CDK9/Cyclin K; [10])	pIC50 (CDK9/Cyclin K; [11])	pIC50 [1]	In vitro clearance CLint (HLM) [2]	CC50 at 72 h [3] [nM]	pIC50 [4]	Papp at 20 h, 10 μmol [5] [×10⁻⁶ cm/s]	pIC50 (CDK13/Cyclin K; [12])	pIC50 (CDK13/Cyclin K; mean of multiple measurement series, ATP 10 μM, read-out: CDK13/Cyclin K IC50)
Cc1noc(C)c1-n1ccc2c(-c3nc(N[C@H]4CCCNC4)ncc3C(F)(F)F)c[nH]c2c1=O [CDK7_924, 6-(3,5-dimethyl-1,2-oxazol-4-yl)-3-(2-{[(3S)-piperidin-3-yl]amino}-5-(trifluoromethyl)pyrimidin-4-yl)-1H,6H,7H-pyrrolo[2,3-c]pyridin-7-one]	5.11	< 6.70	> 8.30	> 8.30	6.37	< 6.70	7.00 to 8.00	A (Clint < 20 μl/(min · mg of protein))	> 2000	> 8.00			
Cn1nnc(-c2cc(-c3nc(N[C@H]4CCCNC4)ncc3C(F)(F)F)c[nH]2)n1 [CDK7_1000, 4-[5-(2-methyl-2H-1,2,3,4-tetrazol-5-yl)-1H-pyrrol-3-yl]-N-[(3S)-piperidin-3-yl]-5-(trifluoromethyl)py-rimidin-2-amine]		< 6.70		> 8.30		7.30 to 8.30	7.00 to 8.00		100 to 500	7.00 to 8.00	< 1	7.30 to 8.30	
FC(F)(F)c1cnc(N[C@H]2CCCNC2)nc1-c1c[nH]c(-c2noc(C3CC3)n2)c1 [CDK7_1103]		< 6.70		> 8.30		6.70 to 7.30	7.00 to 8.00	A (Clint < 20 μl/(min · mg of protein))	100 to 500	7.00 to 8.00			
Cn1ccnc1N1CCCc2c(-c3nc(NC4CCCNC4)ncc3C(F)(F)F)c[nH]c2C1=O (stereo not drawn) [CDK7_1177]		< 6.70		7.30 to 8.30		< 6.70		A (Clint < 20 μl/(min · mg of protein))	> 2000				
CN1CCCc2c(-c3nc(N[C@H]4CCC5(CC5)NC4)ncc3C(F)(F)F)c[nH]c2C1=O [CDK7_1201, 3-[2-({4-azaspiro[2.5]octan-6-yl}amino)-5-(trifluoromethyl)py-rimidin-4-yl]-7-methyl-1H,4H,5H,6H,7H, 8H-pyrrolo[2,3-c]azepin-8-one]	5.35	< 6.70	> 8.30	> 8.30	6.95	6.70 to 7.30	> 8.00		500 to 2000	> 8.00	5 to 10	6.70 to 7.30	7.19
